Results reported in patent US20150352108A1, “AMINO-PYRIMIDINE COMPOUNDS AS INHIBITORS OF TBK1 AND/OR IKK EPSILON” (Alzheimer's Institute of America, priority 2009, published 2015).

What follows are compounds tested against T1, IKKε (Homo sapiens, UniProt Q14164) (assay: In-vitro IKKε kinase assay ([γ33]ATP filter-plate)). Conditions: text bins; read-out: IC50 for inhibition of the kinase activity of IKKε.
T1 construct: His-tag; made in house; host or cells: Sf9 insect cells
T1 sequence (Q14164 1-716): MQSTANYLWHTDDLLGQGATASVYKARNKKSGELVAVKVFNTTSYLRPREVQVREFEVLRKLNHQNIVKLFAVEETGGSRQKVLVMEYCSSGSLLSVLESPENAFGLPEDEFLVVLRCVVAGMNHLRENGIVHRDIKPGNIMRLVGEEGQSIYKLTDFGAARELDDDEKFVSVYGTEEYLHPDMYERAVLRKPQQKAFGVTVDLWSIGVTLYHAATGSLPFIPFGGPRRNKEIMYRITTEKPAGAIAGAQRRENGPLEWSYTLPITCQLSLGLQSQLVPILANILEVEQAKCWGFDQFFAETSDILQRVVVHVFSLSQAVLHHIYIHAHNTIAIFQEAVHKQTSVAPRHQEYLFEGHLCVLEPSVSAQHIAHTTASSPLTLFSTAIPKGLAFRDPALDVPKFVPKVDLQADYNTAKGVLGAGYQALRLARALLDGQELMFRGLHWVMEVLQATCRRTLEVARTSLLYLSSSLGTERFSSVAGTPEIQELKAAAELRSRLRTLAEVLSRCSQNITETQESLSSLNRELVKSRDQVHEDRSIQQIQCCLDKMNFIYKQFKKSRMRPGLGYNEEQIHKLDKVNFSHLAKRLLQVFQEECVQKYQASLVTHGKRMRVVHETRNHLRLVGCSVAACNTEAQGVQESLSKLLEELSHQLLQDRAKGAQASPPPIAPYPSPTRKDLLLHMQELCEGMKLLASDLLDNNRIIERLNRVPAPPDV
Format: biochemical
Method: IKKε enzyme was produced as a His-tag fusion in Sf9 cells and used at a final concentration of […]. TBK1 enzyme was produced as a His-tag fusion in Sf9 cells and used at a final concentration of 0.1 μg/ml. Kinase reactions were carried out in reaction buffer using myelin basic protein (Millipore, Ballerica, Mass.) or casein (Sigma, St. Louis, Mo.) as substrate at an ATP concentration equal to twice the Km,ATP value for each enzyme, corresponding to 32 μM ATP for IKKε and 60 μM ATP for TBK1, in the presence of 0.3 μCi [γ^33]ATP (PerkinElmer, Waltham, Mass.). Final enzyme concentrations were 0.1 or 0.015 μg/ml (IKKε) and 0.1 or 0.02 μg/ml (TBK1), representing “normal” and “sensitized” assay conditions respectively. Test compounds (or DMSO solvent as a control) were added prior to initiation of the reactions. Reactions were terminated after 30-45 minutes by adding 3% phosphoric acid. Terminated reactions were transferred to P-81 cellulose phosphate filterplates (Whatman, Inc., Piscataway, N.J.) and washed with 1% phosphoric acid on a vacuum apparatus. After air drying, scintillant (PerkinElmer, Waltham, Mass.) was added and the plates were read on a PerkinElmer TopCount NXT instrument. Counts were normalized to DMSO controls after background subtraction.
In the case of `COc1ccc(-c2ccnc(Nc3cccc(S(=O)(=O)NCCCO)c3)n2)cc1C#N` [compound 306, 3-{[4-(3-Cyano-4-methoxyphenyl)pyrimidin-2-yl]amino}-N-(3-hydroxypropyl) benzenesulfonamide], the IC50 is reported as 50 to 500 nM. With `N#Cc1cc(-c2ccnc(Nc3cccc(-c4cccnc4)c3)n2)ccc1OC1CCOCC1` [compound 549, 5-(2-{[3-(Pyridin-3-yl)phenyl]amino}pyrimidin-4-yl)-2-(tetrahydro-2H-pyran-4-yloxy)benzonitrile] the IC50 was < 5 nM. For `COc1cc(Nc2nccc(-c3ccc(OCC4CC4)c(C#N)c3)n2)ccc1C(=O)N1CC(OC)C1` [compound 621, 2-(Cyclopropylmethoxy)-5-[2-({3-methoxy-4-[(3-methoxyazetidin-1-yl)carbonyl]phenyl}amino)pyrimidin-4-yl]benzonitrile], the IC50 was < 5 nM. `COc1cc(NC(C)=O)cc(Nc2nccc(-c3ccc(OC)c(C#N)c3)n2)c1` [Example 279, N-(3-{[4-(3-Cyano-4-methoxyphenyl)pyrimidin-2-yl]amino}-5-methoxyphenyl) acetamide] was tested, and the IC50 was 5 to 50 nM. In the case of `N#Cc1cc(-c2ccnc(Nc3cccc(F)c3)n2)ccc1O[C@@H]1CCN(C(=O)CO)C1` [compound 641, 5-{2-[(3-Fluorophenyl)amino]pyrimidin-4-yl}-2-{[(3R)-1-(hydroxyacetyl)pyrrolidin-3-yl]oxy}benzonitrile], the IC50 is reported as 5 to 50 nM. In the case of `N#Cc1cc(-c2ccnc(Nc3ccc(-c4ccncc4)cc3)n2)ccc1OC1CCOCC1` [compound 610, 5-(2-{[4-(Pyridin-4-yl)phenyl]amino}pyrimidin-4-yl)-2-(tetrahydro-2H-pyran-4-yloxy)benzonitrile], the IC50 is reported as < 5 nM. `N#Cc1cc(-c2ccnc(Nc3cccc(S(N)(=O)=O)c3)n2)ccc1OC1CCOCC1` [Example 146, 3-({4-[3-cyano-4-(tetrahydro-2H-pyran-4-yloxy)phenyl]pyrimidin-2-yl}amino) benzenesulfonamide] showed an IC50 of 5 to 50 nM. `Cc1ccnc(NS(=O)(=O)c2ccc(Nc3nccc(-c4ccc(OC5CCOCC5)c(C#N)c4)n3)cc2)n1` [compound 635, 4-({4-[3-Cyano-4-(tetrahydro-2H-pyran-4-yloxy)phenyl]pyrimidin-2-yl}amino)-N-(4-methylpyrimidin-2-yl)benzene-sulfonamide] was tested, and the IC50 was < 5 nM. `N#Cc1cccc(-c2ccnc(Nc3ccc4c(c3)CCC4)n2)c1` [Example 198, 3-[2-(2,3-Dihydro-1H-inden-5-ylamino)pyrimidin-4-yl]benzonitrile] was tested, and the IC50 was 50 to 500 nM. In the case of `N#Cc1cc(-c2ccnc(Nc3cccc(-c4ccncc4)c3)n2)ccc1OC1CCOCC1` [compound 573, 5-(2-{[3-(Pyridin-4-yl)phenyl]amino}pyrimidin-4-yl)-2-(tetrahydro-2H-pyran-4-yloxy)benzonitrile], the IC50 is reported as < 5 nM. For `COc1ccc(Nc2nccc(-c3cc(C#N)cc(OCc4ccccc4)c3)n2)cc1OC` [Example 145, 3-(Benzyloxy)-5-{2-[(3,4-dimethoxyphenyl)amino]pyrimidin-4-yl}benzonitrile], the IC50 was 50 to 500 nM. For `CC(C)C(=O)Nc1ccc(-c2ccnc(Nc3ccc(CCNCCO)cc3)n2)cc1C#N` [compound 455, N-(2-cyano-4-{2-[(4-{2-[(2-hydroxyethyl)amino]ethyl}phenyl)amino]pyrimidin-4-yl}phenyl)-2-methylpropanamide], the IC50 was 5 to 50 nM. For `COc1cc(Nc2nccc(-c3ccc(OC)c(C#N)c3)n2)cc(C(=O)N2CC[C@@H](O)C2)c1` [compound 382, 5-{2-[(3-{[(3R)-3-Hydroxypyrrolidin-1-yl]carbonyl}-5-methoxyphenyl)amino]pyrimidin-4-yl}-2-methoxybenzonitrile], the IC50 was 50 to 500 nM. `COc1ccc(-c2ccnc(Nc3cccc(N)c3)n2)cc1C#N` [compound 321, 5-{2-[(3-Aminophenyl)amino]pyrimidin-4-yl}-2-methoxybenzonitrile] showed an IC50 of 5 to 50 nM. Compound `CN1CCN(CCOc2ccc(Nc3nccc(-c4cccc(C#N)c4)n3)cc2)CC1` [Example 292, 3-[2-({4-[2-(4-Methylpiperazin-1-yl)ethoxy]phenyl}amino)pyrimidin-4-yl]benzonitrile] has an IC50 of 50 to 500 nM. Work on `N#Cc1cc(-c2ccnc(Nc3ccc(N4CCOCC4)cc3)n2)ccc1NC(=O)N1CCCCC1` [Example 44, N-[2-cyano-4-(2-{[4-(morpholin-4-yl)phenyl]amino}pyrimidin-4-yl)phenyl]piperidine-1-carboxamide] yielded an IC50 of 50 to 500 nM. Work on `CCNS(=O)(=O)c1ccc(Nc2nccc(-c3ccc(NC(=O)C(C)C)c(C#N)c3)n2)cc1` [compound 449, N-[2-cyano-4-(2-{[4-(ethylsulfamoyl)phenyl]amino}pyrimidin-4-yl)phenyl]-2-methylpropanamide] yielded an IC50 of 5 to 50 nM. `CC(C)(C)C(=O)Nc1ccc(-c2ccnc(Nc3ccc(N4CCOCC4)cc3)n2)cc1C#N` [Example 196, N-[2-cyano-4-(2-{[4-(morpholin-4-yl)phenyl]amino}pyrimidin-4-yl)phenyl]-2,2-dimethylpropanamide] showed an IC50 of 5 to 50 nM. `N#Cc1cc(-c2ccnc(Nc3ccc(N4CCOCC4)c(C(F)(F)F)c3)n2)ccc1OC1CCOCC1` [Example 120, 5-(2-{[4-(morpholin-4-yl)-3-(trifluoromethyl)phenyl]amino}pyrimidin-4-yl)-2-(tetrahydro-2H-pyran-4-yloxy)benzonitrile] gave an IC50 of 5 to 50 nM. With `N#Cc1cc(-c2ccnc(Nc3ccc(-c4cn[nH]c4)cc3)n2)ccc1OC1CCOCC1` [compound 579, 5-(2-{[4-(1H-Pyrazol-4-yl)phenyl]amino}pyrimidin-4-yl)-2-(tetrahydro-2H-pyran-4-yloxy)benzonitrile] the IC50 was < 5 nM. Work on `COc1ccc(Nc2nccc(-c3cccc(C#N)c3)n2)cc1OC` [compound 352, 3-{2-[(3,4-Dimethoxyphenyl)amino]pyrimidin-4-yl}benzonitrile] yielded an IC50 of 5 to 50 nM. Work on `CN(C)C(=O)Nc1ccc(-c2ccnc(Nc3ccc(N4CCOCC4)cc3)n2)cc1C#N` [Example 81, 3-[2-cyano-4-(2-{[4-(morpholin-4-yl)phenyl]amino}pyrimidin-4-yl)phenyl]-1,1-dimethylurea] yielded an IC50 of 50 to 500 nM. In the case of `CC(=O)N1CC(Oc2ccc(-c3ccnc(Nc4ccc(N5CCOCC5)cc4)n3)cc2C#N)C1` [Example 53, 2-[(1-acetylazetidin-3-yl)oxy]-5-(2-{[4-(morpholin-4-yl)phenyl]amino}pyrimidin-4-yl)benzonitrile], the IC50 is reported as 50 to 500 nM. Work on `CC(C)(N)C(=O)N1CCC(COc2ccc(-c3ccnc(Nc4ccc(N5CCOCC5)cc4)n3)cc2C#N)CC1` [Example 255, 2-{[1-(2-methylalanyl)piperidin-4-yl]methoxy}-5-(2-{[4-(morpholin-4-yl)phenyl]amino}pyrimidin-4-yl)benzonitrile] yielded an IC50 of 50 to 500 nM. `COc1ccc(COc2ccc(-c3ccnc(Nc4ccc(N5CCOCC5)cc4)n3)cc2C#N)cc1` [Example 40, 2-[(4-Methoxybenzyl)oxy]-5-(2-{[4-(morpholin-4-yl)phenyl]amino}pyrimidin-4-yl)benzonitrile] showed an IC50 of 50 to 500 nM. In the case of `CC(C)C(=O)Nc1ccc(-c2ccnc(Nc3ccc(C(C)C(=O)N4CCOCC4)cc3)n2)cc1C#N` (centres unmarked) [compound 453, N-{2-cyano-4-[2-({4-[1-(morpholin-4-yl)-1-oxopropoan-2-yl]phenyl}amino)pyrimidin-4-yl]phenyl}-2-methylpropanamide], the IC50 is reported as 5 to 50 nM. With `N#Cc1cc(-c2ccnc(Nc3cccc(NC(=O)N4CC(O)C4)c3)n2)ccc1OC1CCOCC1` [compound 598, N-[3-({4-[3-Cyano-4-(tetrahydro-2H-pyran-4-yloxy)phenyl]pyrimidin-2-yl}amino)phenyl]-3-hydroxyazetidin-1-carboxamide] the IC50 was < 5 nM. `CN(C)C(=O)N1CCC(Oc2ccc(-c3ccnc(Nc4ccc(N5CCOCC5)cc4)n3)cc2C#N)CC1` [Example 166, 4-[2-Cyano-4-(2-{[4-(morpholin-4-yl)phenyl]amino}pyrimidin-4-yl)phenoxy]-N,N-dimethylpiperidine-1-carboxamide] was tested, and the IC50 was 50 to 500 nM. `COc1cc(NC(=O)NC2CCCC2)cc(Nc2nccc(-c3ccc(OC4CCN(C(C)=O)CC4)c(C#N)c3)n2)c1` [compound 333, 1-{3-[(4-{4-[(1-Acetylpiperidin-4-yl)oxy]-3-cyanophenyl}pyrimidin-2-yl)amino]-5-methoxyphenyl}-3-cyclopentylurea] was tested, and the IC50 was 5 to 50 nM.
